# Reference: patent US8241607B2, “Use of fructose-based compounds for the diagnosis of cancer” (priority 2005, dated 2012)
# Experiments:
# Format in all cases: cell-based
# [1] = system: fructokinase-1 (FK-1) mRNA; test: RT-PCR of fructokinase-1 mRNA in MCF-7 cells; details: MCF-7 grown in 5 mM fructose vs 2 mM and 5 mM glucose
# Protocol: FIG. 7 depicts fructokinase-1 expression in accordance with an embodiment of the present invention. Breast cancer cells (MCF-7) express Fructokinase-1 (FK-1). RT-PCR was used to measure fructokinase-1 (FK-1) mRNA levels in MCF-7 cells following growth in 2 mM glucose, 5.5 mM glucose, or 5.5 mM fructose for 24 h, and in two human breast cancers (BT 1 & 2), and matched adjacent normal breast tissue (NB 1 & 2) from the same individual. […] Human liver, and exclusion of template served as positive and negative controls.
# The inventors used RT-PCR analysis and specific primer pairs (SEQ ID NO: 1 (3′[…]), SEQ ID NO: 2 (5′[…])) to examine fructokinase-1 (FK-1) mRNA levels in glucose- or fructose-treated breast cancer cells. […] Also examined were FK-1 mRNA levels in two surgically resected human breast cancers, and paired adjacent normal breast tissue from the same individual. FK-1 mRNA was detectable in both normal and tumor tissue.
# AP1 = test: ELISA-based transbinding AP1 assay in MCF-7 cells; details: 5.5 mM sugar, 24 h
# Protocol: FIG. 12 depicts an increase in AP1 activation in fructose-treated cells in accordance with an embodiment of the present invention. MCF-7 breast cancer cells were incubated in 2 mM glucose, or 5 mM glucose or fructose for 24 h, after which nuclear extracts were incubated with a biotinylated AP-1 probe in binding buffer. AP-1/AP1 probe complexes were next conjugated to a streptavidin-coated assay plate and detected using an AP-1 specific antibody, followed by binding of a horseradish-peroxidase conjugated secondary antibody, and detection by a colorimetric reagent. *, p<0.001.
# Although several signal transduction pathways are likely involved in the fructose-mediated enhanced breast cancer growth and while not wishing to be bound by any particular theory, the inventors believe that the MAP-kinase pathway is involved. The inventors have used Western blot analysis to examine the MAPK pathway in breast cancer cells incubated in 2 mM glucose, 5.5 mM glucose, and 5.5 mM fructose for 48 hours. […] Activation of MEK, and subsequently ERK results in phosphorylation of p90^Rsk, which leads to transcriptional activation of CREB and AP1, which bind to cAMP or AP1 response elements respectively, activating gene transcription and promoting cellular growth.
# PANC-1 cells = test: PANC-1 proliferation in fructose versus glucose (MTS assay)
# Protocol: FIG. 13 depicts higher proliferation rates in pancreatic cancer cells in fructose (5.5 mM) than glucose (5.5 mM) containing medium in accordance with an embodiment of the present invention. PANC-1 cells were pre-incubated in 2 mM glucose, after which they were plated in 5.5 mM fructose or glucose for times between 12-72 h, after which proliferative rates were measured using an MTS assay. Proliferative rates are expressed as the percentage difference between cells grown in 5.5 mM fructose versus 5.5 mM glucose. p<0.01 for times >48 h.
# FIG. 14 depicts proliferation rates of pancreatic cells in different fructose or glucose concentrations in accordance with an embodiment of the present invention. PANC-1 cells were plated in a range of fructose or glucose concentrations (5-25 mM) for 72 h, after which proliferative rates were measured using an MTS assay. *, p<0.05 for concentrations between 5-25 mM fructose versus glucose.
# FIG. 17 depicts cell proliferation regardless of co-existent glucose concentration in accordance with an embodiment of the present invention. PANC-1 cells were pre-incubated in 2 mM glucose prior to treatment with a range of concentrations (0-15 mM) mixed with a range of fructose concentrations (0-15 mM) for 72 h. PANC-1 cell proliferative rates were then measured using the MTS assay (absorbance in arbitrary units).
# Standard media for maintenance cancer cell line culture, including pancreatic cancer cells such as PANC-1 cells contain either low- (5-7 mM), or high- (12-25 mM) glucose concentrations. […] Proliferative rates were then measured in replicate (minimum of 6) aliquot wells of the pancreatic cancer cells, and the change (expressed as percent increase) in proliferative rates compared between cells grown in glucose, or fructose containing medium.
# This first result intrigued the inventors, but given there is little documentation regarding physiological fructose concentrations, the inventors first considered that the “apparent” pro-proliferative effects of fructose were simply a consequence of the highly stylized in vitro experimental conditions, and that if the pancreatic cancer cells were cultured in higher glucose concentrations, this would result in similar proliferative rates to those the inventors observed following culture in 5.5 mM fructose. […] MTS assay was employed to measure pancreatic cancer cell proliferative rates, which utilizes mitochondrial oxidation to quantify cell proliferation. As the inventors were examining carbohydrate-mediated effects, the inventors considered the change observed in proliferative rates, as measured by this assay, simply reflected changes in mitochondrial oxidation. […]
# AP-1 = AP-1 probe binding assay on nuclear extracts of PANC-1 cells; details: 5.5 mM fructose, 48 h
# Protocol: FIG. 24 depicts luciferase activity of PANC-1 cells and primary culture of surgically resected pancreatic tumor cells in accordance with an embodiment of the present invention. PANC-1 pancreatic cancer cells and a primary culture of a surgically resected pancreatic tumor were incubated in 2 mM glucose, 5.5 mM glucose or 5.5 mM fructose for 48 h, after which nuclear extracts were incubated with a biotinylated AP-1 probe, and detected by an antibody-linked colorimetric method. *, p<0.01
# In separate experiments PANC-1 cells, and primary cultures of surgically resected pancreatic tumors were incubated in 2 mM glucose, or 5.5 mM glucose or 5.5 mM fructose for 48 h, after which nuclear extracts were incubated with a biotinylated AP-1 probe in binding buffer. AP-1/AP1 probe complexes were next conjugated to a streptavidin-coated assay plate and detected using an AP-1 specific antibody, followed by binding of a horseradish-peroxidase conjugated secondary antibody, and detection by a colorimetric reagent.
structure (smiles),measurement,setting,value
O=C(CO)[C@@H](O)[C@H](O)[C@H](O)CO [fructose],FK-1 mRNA levels,[1],highest FK-1 levels
same,increase in AP1 activation,AP1,3 fold
same,proliferative rates,"PANC-1 cells; 5 mM fructose vs 5-fold higher glucose (25 mM), 72 h",higher proliferative rates
same,"higher proliferative rate, fructose vs glucose","PANC-1 cells; 5.5 mM fructose vs 5.5 mM glucose, 72 h (maximal)",23%
same,fructose concentration giving increase in cell proliferation regardless of co-existent glucose,"PANC-1 cells; 72 h, glucose 0-15 mM admixed with fructose 0-15 mM",≥ 6 mM
same,fructose concentration at which increased proliferation was first demonstrable,"PANC-1 cells; 72 h, range 2-25 mM",around 5 mM
same,AP-1 luciferase reporter activity higher than in 5.5 mM glucose,AP-1,approximately 40%
